In test [1] the test system is rabbit aorta rings. The experiment in a line: Vasorelaxant action in vitro (aorta rings precontracted with phenylephrine). To be noted: Oryctolagus cuniculus; isolated rabbit aorta, phenylephrine contraction, 37° C., reduction of control contraction by 50%; read-out: Aorta IC 50. Here is the method:
(§1) To determine the cardiovascular action, the following investigations were carried out: in in vitro investigations on cells of vascular origin, the influence on guanylate cyclase-dependent cGMP formation was tested with and without NO donors. The vasorelaxant action was determined on rabbit aorta rings precontracted with phenylephrine. The hypotensive action was investigated in anaesthetized rats.
Vasorelaxant Action in vitro
1.5 mm wide rings of an isolated rabbit aorta are placed individually under a pretension into 5 ml organ baths containing carbogen-aerated Krebs-Henseleit solution at a temperature of 37° C. The contractile force is amplified and digitalized, and recorded in parallel on a linear recorder. To generate a contraction, phenylephrine is added to the bath cumulatively in increasing concentration.
After several control cycles, the substance to be investigated is investigated in each further passage in increasing dose in each case and the contraction is compared with the height of the contraction achieved in the last previous passage. From this, the concentration is calculated which is necessary to reduce the height of the control value by 50% (IC50). The standard administration volume is 5 μl.

Test [2] deals with T1, soluble guanylate cyclase (Sus scrofa, UniProt A0A4X1U7N1+A0ACM8Q7I6).
T1 construct: endogenous in cells; host or cells: primary endothelial cells from pig aorta
T1 sequence (A0A4X1U7N1 1-619): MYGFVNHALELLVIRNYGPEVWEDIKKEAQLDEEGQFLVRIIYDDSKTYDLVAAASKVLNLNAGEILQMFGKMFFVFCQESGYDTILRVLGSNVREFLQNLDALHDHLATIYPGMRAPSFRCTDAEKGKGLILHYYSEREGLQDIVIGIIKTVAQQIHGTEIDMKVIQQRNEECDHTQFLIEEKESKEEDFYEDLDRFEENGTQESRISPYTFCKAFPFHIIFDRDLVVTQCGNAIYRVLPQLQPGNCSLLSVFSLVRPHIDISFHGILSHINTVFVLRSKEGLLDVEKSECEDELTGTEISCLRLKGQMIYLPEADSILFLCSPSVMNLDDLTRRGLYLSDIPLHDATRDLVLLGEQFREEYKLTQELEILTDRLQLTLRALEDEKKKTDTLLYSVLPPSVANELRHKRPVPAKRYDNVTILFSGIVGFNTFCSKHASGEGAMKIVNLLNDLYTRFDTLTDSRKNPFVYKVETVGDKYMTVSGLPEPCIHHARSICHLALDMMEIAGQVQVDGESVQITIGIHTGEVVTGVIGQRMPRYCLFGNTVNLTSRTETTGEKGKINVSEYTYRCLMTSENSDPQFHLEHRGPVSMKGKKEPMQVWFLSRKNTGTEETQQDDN
T1 sequence (A0ACM8Q7I6 1-688): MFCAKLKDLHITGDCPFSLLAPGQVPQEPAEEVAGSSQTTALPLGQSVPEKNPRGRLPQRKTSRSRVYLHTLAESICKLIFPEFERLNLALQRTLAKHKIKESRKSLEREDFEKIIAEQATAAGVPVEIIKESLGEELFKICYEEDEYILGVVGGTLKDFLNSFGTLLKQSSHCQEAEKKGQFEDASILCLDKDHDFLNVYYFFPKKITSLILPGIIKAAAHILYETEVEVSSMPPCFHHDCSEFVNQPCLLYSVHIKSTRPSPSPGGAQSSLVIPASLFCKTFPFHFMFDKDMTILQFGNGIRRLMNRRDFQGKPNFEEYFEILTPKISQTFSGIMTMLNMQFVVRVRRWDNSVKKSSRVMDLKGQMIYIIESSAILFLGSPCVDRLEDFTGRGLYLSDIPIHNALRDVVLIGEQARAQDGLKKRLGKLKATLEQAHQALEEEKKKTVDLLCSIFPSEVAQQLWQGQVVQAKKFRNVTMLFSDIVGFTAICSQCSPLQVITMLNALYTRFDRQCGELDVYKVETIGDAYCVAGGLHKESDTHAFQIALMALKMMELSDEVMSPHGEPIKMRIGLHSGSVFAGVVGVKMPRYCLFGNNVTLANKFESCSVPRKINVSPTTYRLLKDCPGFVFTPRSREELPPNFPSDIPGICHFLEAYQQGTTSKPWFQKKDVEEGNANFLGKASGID
The test is described as follows: Stimulation of soluble guanylate cyclase in primary endothelial cells (intracellular cGMP, radioimmunological). Format: cell-based. As to conditions: 10 min, test substance 1 μM, primary endothelial cells from pig aorta, NOSYNTH, stimulation buffer with or without NO donor (SNP 1 μM), read-out: % cGMP increase (NOSYNTH). As to the method:
as §1
Stimulation of Soluble Guanylate Cyclase in Primary Endothelial Cells
Primary endothelial cells were isolated from pig aortas by treatment with collagenase soln. The cells were then cultured in culture medium until confluence was achieved. For the investigations, the cells were passaged, inoculated into cell culture plates and subcultured until confluence was achieved. To stimulate the endothelial guanylate cyclase, the culture medium was aspirated and the cells were washed once with Ringer's solution and incubated in stimulation buffer with or without NO donor (sodium nitroprusside, SNP, 1 μM). Following this, the test substances (final concentration 1 μM) were then pipetted onto the cells. After the end of the incubation time of 10 minutes, the buffer solution was aspirated and the cells were lysed at -20° C. for 16 hours. The intracellular cGMP was then determined radioimmunologically.

Test [3] deals with anaesthetized rats. The test is described as follows: Blood pressure measurements on anaesthetized rats. Format: in vivo. To be noted: anaesthetized male Wistar rats; for Max. blood pressure decrease: time 60 min. As to the method:
as §1
Blood Pressure Measurements on Anaesthetized Rats
Male Wistar rats having a body weight of 300-350 g are anaesthetized with thiopental (100 mg/kg i.p.). After tracheotomy, a catheter is inserted in the femoral artery for blood pressure measurement. The substances to be tested are administered orally in various doses as a suspension in Tylose solution by means of stomach tube.

Some results are limits rather than exact numbers.

With `OCc1ccc(-c2nn(Cc3ccccc3F)c3ccccc23)o1` [Example 1, 1-(2-Fluorobenzyl)-3-(5-hydroxymethylfuran-2-yl)-indazole], the IC50 in test [1] came out at 4.1 µM. Besides, the activation at 1 µM in test [2] is over 1000%. Further, in test [3] (10 mg/kg oral), the “Time (of max. blood pressure decrease table)” value was determined as 60 min and the “Max. blood pressure decrease” value was -14 mm Hg. In test [3] (30 mg/kg oral), the “Time (of max. blood pressure decrease table)” value is 60 min and the “Max. blood pressure decrease” value is -18 mm Hg.

`COc1cccc(Cn2nc(-c3ccc(CO)o3)c3ccccc32)c1` [Example 2]: the activation at 1 µM in test [2] turned out to be 72%.

As for `OCc1ccc(-c2nn(Cc3ccc(F)cc3)c3ccccc23)o1` [Example 3], the IC50 in test [1] amounted to 16 µM. For the same molecule, the activation at 1 µM in test [2] amounted to 250%.

For `OCc1ccc(-c2nn(Cc3cccc(F)c3)c3ccccc23)o1` [Example 4], in test [1], the IC50 is 9.2 µM. In addition, the activation at 1 µM in test [2] amounted to 413%.

`OCc1ccc(-c2nn(Cc3ccccc3F)c3cc(F)ccc23)o1` [Example 7]: the activation at 1 µM in test [2] stood at 734%.

In the case of `COc1cccc(Cn2nc(-c3ccc(CO)o3)c3ccc(F)cc32)c1` [Example 8], the activation at 1 µM in test [2] stood at 28%.

With `Cc1ccc(-c2nn(Cc3ccccc3)c3ccccc23)o1` [Example 10], in test [2], the activation at 1 µM was found to be 238%.

On to `OCc1ccc(-c2nn(Cc3ccccc3)c3ccccc23)s1` [Example 11], for which, in test [2], the activation at 1 µM amounted to 14%.

Turning to `OCc1ccc(-c2nn(Cc3ccccc3)c3ccccc23)o1` [Example 14, reference compound], the IC50 in test [1] came to 10 µM. For the same molecule, the activation at 1 µM in test [2] is over 906%. For the same molecule, in test [3] (10 mg/kg oral), the “Time (of max. blood pressure decrease table)” value was 60 min and the “Max. blood pressure decrease” value is -10 mm Hg. In test [3] (30 mg/kg oral), the “Time (of max. blood pressure decrease table)” value is 60 min and the “Max. blood pressure decrease” value is recorded as -18 mm Hg.

These data come from US6180656A, “Use of condensated (hetaryl-substituted) 1-benzal-3-pyrazol derivates for treating special diseases of the cardiovascular and the central nervous systems” (Bayer Aktiengesellschaft, priority 1996, dated 2001).
